In patent US20250115598A1 (Anaxis Pharma Pty Ltd, priority 2021, published 2025):
pKd: −log10 of the molar value. Blank lines part the entries; values can stand above or below the molecule they belong to.

Assays:
human RIPK1 = human RIPK1 (Homo sapiens (Human), UniProt Q13546); experiment: KINOMEscan binding assay, human RIPK1; details: Table 21
How it was run: (§1)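 Assay principle: test compound competes with immobilized bead ligand for kinase; kinase retained, then eluted, is counted by qPCR. Conditions were 1% DMSO final with 11 compound concentrations in 3-fold steps, 30,000 nM top for most. The Hill equation with slope −1 gave Kd.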

human RIPK3 = human RIPK3 (Homo sapiens (Human), UniProt Q9Y572); experiment: KINOMEscan binding assay, human RIPK3; details: Table 21
How it was run: as §1

endogenous MLKL in U937 = endogenous MLKL in U937 (Homo sapiens (Human), UniProt Q8NB16); experiment: Degradation assay: endogenous MLKL in U937 (western blot); details: U937, 24 h incubation, read-out: Degradation of endogenous MLKL in U937 (DC50 cell-based assay)
How it was run: (§2)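 Western blot band intensity of MLKL, adjusted to GAPDH loading and normalized to DMSO-only wells, gave percent degradation. Compound exposure lasted 24 h at final concentrations of 10–0.016 μM in 1:5 steps, in mouse dermal fibroblasts or human U937 cells.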

endogenous MLKL in MDF = endogenous MLKL in MDF (Mus musculus (Mouse), UniProt Q9D2Y4); experiment: Degradation assay: endogenous MLKL in MDF (western blot); details: MDF cells, 24 h incubation with compound, MLKL adjusted for loading with GAPDH, normalized to DMSO only control, read-out: Degradation of endogenous MLKL in MDF (DC50 cell-based assay)
How it was run: as §2

Chain of endogenous MLKL in U937 (Q8NB16 whole entry): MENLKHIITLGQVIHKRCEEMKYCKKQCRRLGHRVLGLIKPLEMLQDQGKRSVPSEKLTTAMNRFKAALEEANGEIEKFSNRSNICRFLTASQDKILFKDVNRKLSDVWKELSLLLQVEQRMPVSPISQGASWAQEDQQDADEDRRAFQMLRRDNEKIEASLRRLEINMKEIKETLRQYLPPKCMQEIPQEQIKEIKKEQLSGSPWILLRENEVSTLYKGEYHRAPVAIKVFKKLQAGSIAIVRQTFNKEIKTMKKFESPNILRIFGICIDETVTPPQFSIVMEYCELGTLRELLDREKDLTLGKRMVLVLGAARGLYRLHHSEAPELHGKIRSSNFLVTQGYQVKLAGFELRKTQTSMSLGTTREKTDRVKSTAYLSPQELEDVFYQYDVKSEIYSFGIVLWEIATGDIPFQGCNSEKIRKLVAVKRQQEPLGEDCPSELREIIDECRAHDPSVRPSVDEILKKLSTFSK
Chain of human RIPK1 (Q13546 whole entry): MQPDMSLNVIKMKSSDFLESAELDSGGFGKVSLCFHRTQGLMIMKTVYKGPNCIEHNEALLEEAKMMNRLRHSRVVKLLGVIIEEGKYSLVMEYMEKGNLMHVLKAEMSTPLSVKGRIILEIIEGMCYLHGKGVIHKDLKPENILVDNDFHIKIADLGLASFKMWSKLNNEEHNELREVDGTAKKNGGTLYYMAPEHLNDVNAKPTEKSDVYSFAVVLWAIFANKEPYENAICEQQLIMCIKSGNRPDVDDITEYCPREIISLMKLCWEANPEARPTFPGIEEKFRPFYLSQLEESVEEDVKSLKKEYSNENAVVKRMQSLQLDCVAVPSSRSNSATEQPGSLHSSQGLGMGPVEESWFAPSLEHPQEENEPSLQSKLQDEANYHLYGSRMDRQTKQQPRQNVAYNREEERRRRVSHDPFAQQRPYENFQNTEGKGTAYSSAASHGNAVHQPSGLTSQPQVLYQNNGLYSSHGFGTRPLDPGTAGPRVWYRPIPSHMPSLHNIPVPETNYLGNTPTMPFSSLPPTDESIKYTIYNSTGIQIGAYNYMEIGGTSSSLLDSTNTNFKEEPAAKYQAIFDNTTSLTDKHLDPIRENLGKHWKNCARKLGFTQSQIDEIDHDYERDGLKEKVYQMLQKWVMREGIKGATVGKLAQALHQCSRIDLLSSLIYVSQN
Chain of human RIPK3 (Q9Y572 whole entry): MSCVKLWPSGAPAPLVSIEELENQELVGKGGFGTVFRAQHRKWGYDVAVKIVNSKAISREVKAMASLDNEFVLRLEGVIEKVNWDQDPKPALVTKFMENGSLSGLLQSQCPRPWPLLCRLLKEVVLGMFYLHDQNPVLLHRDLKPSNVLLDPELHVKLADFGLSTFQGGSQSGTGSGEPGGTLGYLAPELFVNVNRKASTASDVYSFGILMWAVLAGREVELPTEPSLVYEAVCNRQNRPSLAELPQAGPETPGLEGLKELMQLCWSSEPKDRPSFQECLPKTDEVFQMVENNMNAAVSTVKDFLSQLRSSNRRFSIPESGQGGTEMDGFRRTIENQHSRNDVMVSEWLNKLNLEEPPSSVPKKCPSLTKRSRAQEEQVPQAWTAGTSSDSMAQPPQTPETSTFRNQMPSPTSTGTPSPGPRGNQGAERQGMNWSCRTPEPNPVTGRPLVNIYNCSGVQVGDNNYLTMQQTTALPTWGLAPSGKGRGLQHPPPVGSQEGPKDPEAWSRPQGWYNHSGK
Chain of endogenous MLKL in MDF (Q9D2Y4 whole entry): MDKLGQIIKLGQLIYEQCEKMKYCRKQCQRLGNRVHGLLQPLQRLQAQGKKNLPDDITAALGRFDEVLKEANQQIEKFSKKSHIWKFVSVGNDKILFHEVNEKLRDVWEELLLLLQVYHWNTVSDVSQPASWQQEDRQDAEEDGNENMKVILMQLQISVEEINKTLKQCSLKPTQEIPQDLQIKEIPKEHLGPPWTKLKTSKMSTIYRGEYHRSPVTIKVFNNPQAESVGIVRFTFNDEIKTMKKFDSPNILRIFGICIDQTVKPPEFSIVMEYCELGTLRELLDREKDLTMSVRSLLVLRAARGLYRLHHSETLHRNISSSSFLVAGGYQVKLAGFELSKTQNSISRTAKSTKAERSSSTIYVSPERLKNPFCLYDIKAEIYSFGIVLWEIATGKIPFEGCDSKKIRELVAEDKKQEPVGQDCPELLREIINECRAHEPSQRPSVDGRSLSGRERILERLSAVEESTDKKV

- pKd (human RIPK1): < 5.00
- pKd (human RIPK3): < 5.00
Molecule: Nc1ncc(-c2cnn(C3CCOCC3)c2)c2[nH]nc(-c3ccc(NS(=O)(=O)C(F)F)c(OCc4cccc(Cl)c4)c3)c12 [Compound 131]

- DC50 (endogenous MLKL in U937): < 1 µM
Molecule: Cc1ncsc1-c1ccc(CNC(=O)[C@@H]2C[C@@H](O)CN2C(=O)[C@@H](NC(=O)COCCOCCn2cc(-c3cnc(N)c4c(-c5ccc(NS(=O)(=O)C(F)F)c(O[C@@H](C)c6ccc(F)cc6)c5)nn(C)c34)cn2)C(C)(C)C)cc1 [Compound 1006, (2S,4R)-1-[(2S)-2-(2-{2-[2-(4-{4-amino-3-[4-(difluoromethanesulfonamido)-3-[(1S)-1-(4-fluorophenyl)ethoxy]phenyl]-1-methyl-1H-pyrazolo[4,3-c]pyridin-7-yl}-1H-pyrazol-1-yl)ethoxy]ethoxy}acetamido)-3,3-dimethylbutanoyl]-4-hydroxy-N-{[4-(4-methyl-1,3-thiazol-5-yl)phenyl]methyl}pyrrolidine-2-carboxamide]

- DC50 (endogenous MLKL in U937): < 1 µM
Molecule: Cc1ncsc1-c1ccc(CNC(=O)[C@@H]2C[C@@H](O)CN2C(=O)[C@@H](NC(=O)CCCCCCn2cc(-c3cnc(N)c4c(-c5ccc(NS(=O)(=O)C(F)F)c(O[C@@H](C)c6ccc(F)cc6)c5)nn(C)c34)cn2)C(C)(C)C)cc1 [Compound 1008, (2S,4R)-1-[(2S)-2-[7-(4-{4-amino-3-[4-(difluoromethanesulfonamido)-3-[(1 S)-1-(4-fluorophenyl)ethoxy]phenyl]-1-methyl-1H-pyrazolo[4,3-c]pyridin-7-yl}-1H-pyrazol-1-yl)heptanamido]-3,3-dimethylbutanoyl]-4-hydroxy-N-{[4-(4-methyl-1,3-thiazol-5-yl)phenyl]methyl}pyrrolidine-2-carboxamide]

- DC50 (endogenous MLKL in U937): < 1 µM
Molecule: Cc1ncsc1-c1ccc(CNC(=O)[C@@H]2C[C@@H](O)CN2C(=O)[C@@H](NC(=O)CCN2CCCC(n3cc(-c4cnc(N)c5c(-c6ccc(NS(=O)(=O)C(F)F)c(O[C@@H](C)c7ccc(F)cc7)c6)nn(C)c45)cn3)C2)C(C)(C)C)cc1 (stereo partly drawn) [Compound 1014, (2S,4R)-1-[(2S)-2-{3-[3-(4-{4-amino-3-[4-(difluoromethanesulfonamido)-3-[(1S)-1-(4-fluorophenyl)ethoxy]phenyl]-1-methyl-1H-pyrazolo[4,3-c]pyridin-7-yl}-1H-pyrazol-1-yl)piperidin-1-yl]propanamido}-3,3-dimethylbutanoyl]-4-hydroxy-N-{[4-(4-methyl-1,3-thiazol-5-yl)phenyl]methyl}pyrrolidine-2-carboxamide]

- DC50 (endogenous MLKL in U937): 1 to 10 µM
Molecule: Cc1ncsc1-c1ccc(CNC(=O)[C@@H]2C[C@@H](O)CN2C(=O)[C@@H](NC(=O)COCCN2CCCC(n3cc(-c4cnc(N)c5c(-c6ccc(NS(=O)(=O)C(F)F)c(O[C@@H](C)c7ccc(F)cc7)c6)nn(C)c45)cn3)C2)C(C)(C)C)cc1 (stereo partly drawn) [Compound 1015, (2S,4R)-1-[(2S)-2-(2-{2-[3-(4-{4-amino-3-[4-(difluoromethanesulfonamido)-3-[(1S)-1-(4-fluorophenyl)ethoxy]phenyl]-1-methyl-1H-pyrazolo[4,3-c]pyridin-7-yl}-1H-pyrazol-1-yl)piperidin-1-yl]ethoxy}acetamido)-3,3-dimethylbutanoyl]-4-hydroxy-N-{[4-(4-methyl-1,3-thiazol-5-yl)phenyl]methyl}pyrrolidine-2-carboxamide]

- DC50 (endogenous MLKL in MDF): < 1 µM
Molecule: C[C@H](Oc1cc(-c2nn(C)c3c(-c4cnn(CCCCCCCOc5cccc6c5C(=O)N(C5CCC(=O)NC5=O)C6=O)c4)cnc(N)c23)ccc1NS(=O)(=O)C(F)F)c1ccc(F)cc1 (stereo partly drawn) [Compound 1031, N-(4-{4-amino-7-[1-(7-{[2-(2,6-dioxopiperidin-3-yl)-1,3-dioxo-2,3-dihydro-1H-isoindol-4-yl]oxy}heptyl)-1H-pyrazol-4-yl]-1-methyl-1H-pyrazolo[4,3-c]pyridin-3-yl}-2-[(1 S)-1-(4-fluorophenyl)ethoxy]phenyl)-1,1-difluoromethanesulfonamide]

- pKd (human RIPK1): < 5.00
- pKd (human RIPK3): < 5.00
Molecule: N-(4-(4-amino-1-methyl-7-(1-(1,2,2-trimethylpiperidin-4-yl)-1H-pyrazol-4-yl)-1H-pyrazolo[4,3-c]pyridin-3-yl)-2-((S)-1-(4-fluorophenyl)ethoxy)phenyl)-1,1-difluoromethanesulfonamide [Compound 113]
